In US20200368247A1, “CENICRIVIROC FOR THE TREATMENT OF FIBROSIS” (Tobira Therapeutics, Inc., priority 2014, published 2020):

Experiment: Study 202 fasting metabolic laboratory parameters
Format: in vivo, human
From the text: All abnormalities in total cholesterol, LDL cholesterol, triglycerides, or glucose were Grade 1 or Grade 2.
Mean baseline values and changes from baseline in HbA1c, HOMA-IR, fasting LDL, fasting HDL, fasting total cholesterol, fasting total cholesterol/HDL ratio, and fasting triglycerides are shown in Table 36.

[1] = All CVC (N = 115), EFV (N = 28), through Week 48

Compound: O=C1Nc2ccc(Cl)cc2[C@@](C#CC2CC2)(C(F)(F)F)O1 [EFV, efavirenz, reference compound]
- Any fasting laboratory abnormality, worst Grade 1 [1]: 6 (21%) n (%)
- Any fasting laboratory abnormality, worst Grade 2 [1]: 3 (11%) n (%)
- Any fasting laboratory abnormality, worst Grade 3 [1]: 0 n (%)
- Any fasting laboratory abnormality, worst Grade 4 [1]: 0 n (%)
- Any graded (Grade 1-4) fasting laboratory abnormality [1]: 9 (32%) n (%)
- Fasting LDL cholesterol abnormality, Grade 1 [1]: 3 (11%) n (%)
- Fasting LDL cholesterol abnormality, Grade 2 [1]: 3 (11%) n (%)
- Fasting LDL cholesterol abnormality, Grade 3 [1]: 0 n (%)
- Fasting LDL cholesterol abnormality, Grade 4 [1]: 0 n (%)
- Fasting LDL cholesterol abnormality, any grade [1]: 6 (21%) n (%)
- Fasting glucose (serum, high) abnormality, Grade 1 [1]: 2 (7%) n (%)
- Fasting glucose (serum, high) abnormality, Grade 2 [1]: 0 n (%)
- Fasting glucose (serum, high) abnormality, Grade 3 [1]: 0 n (%)
- Fasting glucose (serum, high) abnormality, Grade 4 [1]: 0 n (%)
- Fasting glucose (serum, high) abnormality, any grade [1]: 2 (7%) n (%)
- Fasting total cholesterol abnormality, Grade 1 [1]: 6 (21%) n (%)
- Fasting total cholesterol abnormality, Grade 2 [1]: 3 (11%) n (%)
- Fasting total cholesterol abnormality, Grade 3 [1]: 0 n (%)
- Fasting total cholesterol abnormality, Grade 4 [1]: 0 n (%)
- Fasting total cholesterol abnormality, any grade [1]: 9 (32%) n (%)
- Fasting triglycerides abnormality, Grade 1 [1]: 0 n (%)
- Fasting triglycerides abnormality, Grade 2 [1]: 0 n (%)
- Fasting triglycerides abnormality, Grade 3 [1]: 0 n (%)
- Fasting triglycerides abnormality, Grade 4 [1]: 0 n (%)
- Fasting triglycerides abnormality, any grade [1]: 0 n (%)
- Fasting HDL, mean change from baseline (All CVC, EFV, Week 4): 5.90 mg/dL
- Fasting total cholesterol, mean change from baseline (All CVC, EFV, Week 4): 19 mg/dL
- Fasting total cholesterol/HDL ratio, mean change from baseline (All CVC, EFV, Week 4): −0.07
- Fasting triglycerides, mean change from baseline (All CVC, EFV, Week 4): 23 mg/dL
- HOMA-IR, mean change from baseline (All CVC, EFV, Week 4): 0.30
- HbA1c, mean change from baseline (All CVC, EFV, Week 4): −0.01 % Hb
- Fasting total cholesterol, mean change from baseline (All CVC, EFV, Week 12): 18 mg/dL
- Fasting total cholesterol/HDL ratio, mean change from baseline (All CVC, EFV, Week 12): −0.41
- Fasting triglycerides, mean change from baseline (All CVC, EFV, Week 12): 3 mg/dL
- HOMA-IR, mean change from baseline (All CVC, EFV, Week 12): 0.06
- HbA1c, mean change from baseline (All CVC, EFV, Week 12): −0.07 % Hb
- Fasting total cholesterol, mean change from baseline (All CVC, EFV, Week 24): 24 mg/dL
- Fasting total cholesterol/HDL ratio, mean change from baseline (All CVC, EFV, Week 24): −0.47
- Fasting triglycerides, mean change from baseline (All CVC, EFV, Week 24): 10 mg/dL
- HbA1c, mean change from baseline (All CVC, EFV, Week 24): −0.01 % Hb
- Fasting total cholesterol, mean change from baseline (All CVC, EFV, Week 48): 26 mg/dL
- HOMA-IR, mean change from baseline (All CVC, EFV, Week 48): −0.12
- HbA1c, mean change from baseline (All CVC, EFV, Week 48): 0.08 % Hb
- change in LDL cholesterol and HDL cholesterol (EFV, through Week 48): increases
